Assay results taken from US9376449B2, “Indole carboxamide derivative” (Astellas Pharma Inc., priority 2012, dated 2016).

Legend:
[1] = system: urethral pressure; test: Effect of test compound on urethral pressure in anesthetized rats; format: in vivo, rat; details: 0.1 mg/kg intravenously, urethane-anesthetized SD female rats
Excerpt: Test Example 3 Test to Evaluate Effect of Test Compound on Urethral Pressure
It has been reported that an increase in the urethra pressure is useful for the treatment of urinary incontinence, particularly stress urinary incontinence (for example, Drugs, 64, 14, 1503-1516 (2004)). In order to confirm whether the compound of the present invention increases the urethra pressure and thus is useful for the treatment of urinary incontinence, particularly stress urinary incontinence, the following tests were carried out.
SD female rats were anesthetized with urethane and subjected to laparotomy. Then, the bladder apex was incised and a catheter was inserted from the bladder apex. Further, the catheter tip was ligated and fixed to be located in the proximal urethra portion. The catheter was connected to a pressure transducer and an infusion pump. Further, a catheter for administrating the compound was fitted into the femoral vein. Physiological saline was continuously infused into the urethra and the perfusion pressure in the urethra was measured. After the urethral pressure was stabilized, the test compound that had been dissolved in physiological saline, or physiological saline including 5% dimethylacetamide and 0.5% Cremophor was administered intravenously at 0.1 mg/kg, and a change in urethral pressures was measured.
Further, the results of administering an active metabolite of midodrine (ST-1059: purchased from CHEMIZON) (J. Urology, 118, 980-982 (1977)) which is an α1 adrenoceptor agonist and has an effect on stress urinary incontinence in rat doses (0.01 mg/kg) presumed to correspond to the clinical doses are referenced and shown in the Tables below. The increment value in the urethra pressures of ramelteon and the Example compounds of the present invention at the time of administration are shown in Table 4. Ex represents Example No. of the test compound.

[2] = target: T1, human MT2 receptor (Homo sapiens, UniProt P49286); test: Activation of human MT2 receptor in receptor-expressing HEK293 cells (intracellular Ca2+, FLIPR); format: cell-based
T1 sequence (P49286 1-362): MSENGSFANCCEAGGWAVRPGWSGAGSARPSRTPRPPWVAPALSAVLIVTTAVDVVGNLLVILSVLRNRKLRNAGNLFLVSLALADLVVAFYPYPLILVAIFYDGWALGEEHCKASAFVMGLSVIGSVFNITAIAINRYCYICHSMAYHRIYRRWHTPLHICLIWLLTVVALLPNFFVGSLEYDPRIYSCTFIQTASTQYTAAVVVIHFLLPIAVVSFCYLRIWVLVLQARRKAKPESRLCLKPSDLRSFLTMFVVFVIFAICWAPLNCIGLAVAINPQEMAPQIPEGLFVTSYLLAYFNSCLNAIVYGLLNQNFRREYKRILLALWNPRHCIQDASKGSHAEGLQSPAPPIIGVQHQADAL
Protocol: (§1) (1) Isolation of Human MT1 and MT2 Receptor and Construction of Expression Vector
(§2) A human MT1 receptor gene (GenBank Accession No.: NM_005958.3) and a human MT2 receptor gene (GenBank Accession No.: NM_005959.3) were each introduced into an expression vector pCDNA3.1/Zeo (Invitrogen, Inc.).
(§3) (2) Construction of Cells Stably Expressing Human MT1 and Human MT2 Receptor
(§4) The introduction was carried out according to the attached instructions, using a Lipofectoamine (registered trademark) 2000 Reagent (Invitrogen, Inc.). Zeocin and hygromycin were used as a resistant drug, and the cell was incubated for 15 days at 0.02 mg/mL and 0.05 mg/mL, respectively, thereby acquiring drug-resistant clones.
(§5) (3) Measurement of Intracellular Ca^2+ Concentration by FLIPR (Registered Trademark)
(§6) The respective stably expressing cells were dispensed into 96-well poly-D-lysine-coated plates (Falcon Co.) to 40,000 cells/well the day before the experiment, and incubated overnight in a DMEM (Invitrogen, Inc.) medium including 10% FBS at 37° C. and 5% CO2. The medium was replaced with a loading buffer (washing solution (Hank's balanced salt solution (HBSS), 20 mM HEPES-NaOH, 2.5 mM probenecid) including Fluo-4AM (Dojindo Co.) at 4 μM), and incubated for 1 hour at 37° C. and 5% CO2. Thereafter, the cells were washed with a plate washer (ELx405, BIO-TEK Instrument, Inc.) set with the washing solution, and set in an intracellular Ca^2+ concentration measuring systems (FLIPR (registered trademark), Molecular Device Co.). The test compound was dissolved in the washing solution in advance, diluted to a final concentration of −12 to −5 log M, set in a FLIPR (registered trademark) device together with the cells, and added to the cells in the device. At this time, a change in the intracellular Ca^2+ concentrations was measured.
(§7) Ex represents Example No. of the test compound.

[3] = system: 3T3; test: In vitro 3T3 NRU phototoxicity test; format: cell-based
Protocol: Test Example 6 Drug Pharmacokinetic Test, Safety Pharmacology Test, and Toxicity Test
Using some Example compounds of the present invention, a drug Pharmacokinetic test, a safety pharmacology test, and a toxicity test were carried out.
(iii) For the toxicity test, for example, an in vitro phototoxicity test was carried out. The evaluation of the in vitro phototoxicity test was carried out in accordance with Guidance for industry photosafety testing, Center for Drug Evaluation and Research Food and Drug Administration, 2003, which is a guideline of FDA (U.S. Food and Drug Administration), and Note for guidance on photosafety testing (CPMP/SWP/398/01, 2002) which is a guideline of EMA (European Medicines Agency), and the method described in OECD guideline for testing of chemicals 432: In vitro 3T3 NRU phototoxicity test, 2004, which is a test method described in the report of OECD.

[4] = system: isolated urethra; test: Isolated urethra contractile action; parameters: species or system rat; details: test compound at 1 μM; contractile response by 10 μM phenylephrine as 100%; SD female rat urethra; read-out: Isolated urethra contraction (%)
Protocol: Test Example 2 Isolated Urethra Contractile Action
(1) Evaluation Test on Urethra Contractile Action of Test Compound Using Isolated Urethra
The urethra was isolated from an SD female rat having a body weight of 100 to 500 g. The isolated urethra was incised longitudinally to give a rectangular strip specimen having a width of about 3 mm, which was suspended in the circular muscle direction in 10 mL of a tissue bath filled with a Krebs-Henseleit solution (pH 7.4). The Krebs-Henseleit solution was bubbled with 95% O2 and 5% CO2, and kept at 37° C. The resting tension was set to 0.5 g to record the isometric contraction. After the resting tension was stabilized, contraction was elicited by the addition of 10 μM phenylephrine. After washing and stabilizing, the test compound was added cumulatively to a final concentration of −12 to −5 log M to measure a contractile response. By taking the contractile response by 10 μM phenylephrine as 100%, the ratio of the contractile response in the concentration of the test compound at 1 μM was calculated.
as §7

[5] = CNS penetration: CSF to plasma unbound concentration ratio in rat; format: in vivo; details: CSF and plasma (unbound), iv, 15 minutes after intravenous administration, CCSF/Cplasma,u, read-out: Kp,uu,CSF,iv15min
Protocol: Test Example 4 Test for Evaluating CNS Penetration
(1) Measurement of Unbound Fraction (fp) in Rat Plasma
A test compound (100 μg/mL, 50% acetonitrile solution) at 1% (v/v) with respect to the amount of the plasma was added to rat plasma, and dispensed to a sample for a supernatant and a sample for the plasma. The sample for a supernatant was ultracentrifuged at 436,000×g and 37° C. for 140 minutes, and the sample for the plasma was incubated at 37° C. for 140 minutes.
After 140 minutes, the sample for a supernatant after the ultracentrifugation and the sample for the plasma were taken, and mixed with the blank plasma or the blank supernatant, respectively. Acetonitrile including an internal standard material was added to each of the samples, and after the centrifugation at 2150×g and 4° C. for 10 minutes the supernatant was injected into LC-MS/MS.
The unbound fraction in the plasma was calculated by the following equation.
(wherein fp: an unbound fraction in the plasma and D: a dilution rate of the plasma. fu,app=peak area ratio of supernatant sample/peak area ratio of the plasma sample, and peak area ratio=peak area of test compound/peak area of internal standard material).
(2) The CSF to Plasma Unbound Concentration Ratio in Rat
A 50% acetonitrile solution and an acetonitrile including internal standard material was added to the collected plasma or CSF. After centrifugation at 4° C. and 2150×g for 10 minutes, the supernatant was injected into LC-MS/MS, and the total concentration of the test compound in the plasma (Cplasma,t) and the concentration of the test compound in CSF (CCSF) were obtained. The unbound concentration in the plasma (Cplasma,u) of the test compound and the CSF-to plasma unbound concentration ratio (Kp,uu,CSF) of the test compound was calculated by the following equation.
as §7

[6] = target: human MT1 receptor (Homo sapiens, UniProt P48039); test: Activation of human MT1 receptor in receptor-expressing HEK293 cells (intracellular Ca2+, FLIPR); format: cell-based
Protocol: as §1, §2, §3, §4, §5, §6, §7

Chain of human MT1 receptor (P48039 whole entry): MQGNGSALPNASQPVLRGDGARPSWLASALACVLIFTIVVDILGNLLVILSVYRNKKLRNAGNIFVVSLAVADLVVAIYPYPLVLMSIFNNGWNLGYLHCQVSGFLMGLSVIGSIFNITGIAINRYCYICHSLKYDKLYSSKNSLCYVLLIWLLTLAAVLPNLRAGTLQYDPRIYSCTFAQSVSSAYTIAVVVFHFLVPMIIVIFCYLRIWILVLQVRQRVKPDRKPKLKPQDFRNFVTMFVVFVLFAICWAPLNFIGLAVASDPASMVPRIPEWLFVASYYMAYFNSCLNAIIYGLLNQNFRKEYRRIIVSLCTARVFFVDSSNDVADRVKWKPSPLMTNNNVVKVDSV

| Structure (SMILES) | melting point [°C] | Increment value in the urethra pressures (mmHg) [1] [mmHg] | Emax ([2]; HEK293, maximum reaction by ramelteon taken as 100%, solvent only 0%) [%] | EC50 ([2]; HEK293 cells stably expressing human MT2 and Gq/i chimeric G-protein, intracellular Ca2+ by FLIPR) [nM] | phototoxicity action [3] | activation at 1 µM [4] [%] | Kp uu at 0.25 h [5] | Emax ([6]; HEK293, maximum reaction by ramelteon taken as 100%, solvent only 0%, read-out: MT1 Emax (%)) [%] | EC50 ([6]; HEK293 cells stably expressing human MT1 and Gq/i chimeric G-protein, intracellular Ca2+ by FLIPR) [nM] |
| --- | --- | --- | --- | --- | --- | --- | --- | --- | --- |
| CNC(=O)c1[nH]c2cc(F)c(OC)cc2c1CCNC(=O)C(F)F [Ex 57, 3-{2-[(difluoroacetyl)amino]ethyl}-6-fluoro-5-methoxy-N-methyl-1H-indole-2-carboxamide] | 196 to 200 |  |  |  |  |  |  |  |  |
| CNC(=O)c1[nH]c2ccc(OC)cc2c1CCNC(C)=O [Ex 1, 3-(2-acetamidoethyl)-5-methoxy-N-methyl-1H-indole-2-carboxamide] |  | 5.1 ± 0.6 | 108 | 26 | no phototoxicity action | 128 | 0.18 | 104 | 12 |
| CNC(=O)c1[nH]c2cc(F)c(OC)cc2c1CCNC(C)=O [Ex 56, 3-(2-acetamidoethyl)-6-fluoro-5-methoxy-N-methyl-1H-indole-2-carboxamide] | 209 to 212 |  |  |  |  |  |  |  |  |
